For 1 molecule, remaining binding results are on record in publication PMC10174618, “Monoterpenoid aryl hydrocarbon receptor allosteric antagonists protect against ultraviolet skin damage in female mice” (Nature Communications, 2023).

What all share (assay): biochemical
What all share (design): KINOMEscan scanMAX active site-directed competition binding assay, percent of control, 468 kinases
What all share (conditions): competition binding, percent of control

One assay concerns the target ROCK1 (Homo sapiens, UniProt Q13464). In a few lines:
(§1)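 KINOMEscan active site-directed competition binding assay against 468 human kinases with 100 μM S-carvone. Binding expressed as % of control, with 35% of control as the inhibition threshold.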

Another assay concerns the target LTK (Homo sapiens, UniProt P29376). The method in brief: as §1
Another assay has as its target MAPKAPK5 (Homo sapiens, UniProt Q8IW41). In a few lines: as §1
For the next assay, the target named is DMPK (Homo sapiens, UniProt Q09013). In a few lines:
as §1

In a further assay the target is FGFR3(G697C) (Homo sapiens, UniProt P22607, G697C). The method in brief: as §1
Chain of FGFR3(G697C) (P22607 whole entry G697C): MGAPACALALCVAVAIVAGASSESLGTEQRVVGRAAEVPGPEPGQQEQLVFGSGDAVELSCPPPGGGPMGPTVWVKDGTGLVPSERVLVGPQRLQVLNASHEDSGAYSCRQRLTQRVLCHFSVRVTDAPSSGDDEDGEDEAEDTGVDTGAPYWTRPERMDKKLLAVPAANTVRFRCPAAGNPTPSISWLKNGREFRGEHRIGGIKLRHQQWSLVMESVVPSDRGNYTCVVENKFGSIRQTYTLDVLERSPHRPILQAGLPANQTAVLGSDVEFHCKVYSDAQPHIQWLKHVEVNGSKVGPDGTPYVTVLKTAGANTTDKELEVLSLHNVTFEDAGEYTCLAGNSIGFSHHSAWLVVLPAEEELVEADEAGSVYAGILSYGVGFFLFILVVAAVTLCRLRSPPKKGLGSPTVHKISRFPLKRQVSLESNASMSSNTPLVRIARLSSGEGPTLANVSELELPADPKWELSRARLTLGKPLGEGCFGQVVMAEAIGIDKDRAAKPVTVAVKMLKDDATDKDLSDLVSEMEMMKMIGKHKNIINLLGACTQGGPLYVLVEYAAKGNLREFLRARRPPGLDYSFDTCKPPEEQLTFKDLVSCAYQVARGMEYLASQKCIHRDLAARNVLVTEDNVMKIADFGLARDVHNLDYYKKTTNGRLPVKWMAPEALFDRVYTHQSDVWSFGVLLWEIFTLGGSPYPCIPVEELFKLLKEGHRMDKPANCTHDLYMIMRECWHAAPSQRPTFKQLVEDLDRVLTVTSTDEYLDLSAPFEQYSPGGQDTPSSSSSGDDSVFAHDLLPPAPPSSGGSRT
Another assay deals with T1, DMPK2 (Homo sapiens, UniProt Q6DT37).
T1 construct: gene CDC42BPG
In a few lines: as §1

Another assay concerns the target PKN1 (Homo sapiens, UniProt Q16512). The method in brief:
as §1

For another assay, the target named is T2, MRCKB (Homo sapiens, UniProt Q9Y5S2).
T2 construct: gene CDC42BPB
In a few lines: as §1

The target in a further assay is ALK(L1196M) (Homo sapiens, UniProt Q9UM73, L1196M). The method in brief:
as §1

In another assay the target is MAP4K4 (Homo sapiens, UniProt O95819). In a few lines:
as §1

A further assay deals with TTK (Homo sapiens, UniProt P33981). The method in brief: as §1
In another assay the target is EPHA3 (Homo sapiens, UniProt P29320). The method in brief:
as §1

A further assay concerns the target CLK2 (Homo sapiens, UniProt P49760). The method in brief: as §1
The target in the next assay is IGF1R (Homo sapiens, UniProt P08069). In a few lines: as §1
In a further assay the target is ERN1 (Homo sapiens, UniProt O75460). The method in brief:
as §1

In another assay the target is ALK(C1156Y) (Homo sapiens, UniProt Q9UM73, C1156Y). The method in brief:
as §1

Another assay has as its target CDKL2 (Homo sapiens, UniProt Q92772). In a few lines:
as §1

Another assay deals with LATS2 (Homo sapiens, UniProt Q9NRM7). In a few lines:
as §1

A further assay deals with HIPK2 (Homo sapiens, UniProt Q9H2X6). In a few lines: as §1
Chain of HIPK2 (Q9H2X6 whole entry): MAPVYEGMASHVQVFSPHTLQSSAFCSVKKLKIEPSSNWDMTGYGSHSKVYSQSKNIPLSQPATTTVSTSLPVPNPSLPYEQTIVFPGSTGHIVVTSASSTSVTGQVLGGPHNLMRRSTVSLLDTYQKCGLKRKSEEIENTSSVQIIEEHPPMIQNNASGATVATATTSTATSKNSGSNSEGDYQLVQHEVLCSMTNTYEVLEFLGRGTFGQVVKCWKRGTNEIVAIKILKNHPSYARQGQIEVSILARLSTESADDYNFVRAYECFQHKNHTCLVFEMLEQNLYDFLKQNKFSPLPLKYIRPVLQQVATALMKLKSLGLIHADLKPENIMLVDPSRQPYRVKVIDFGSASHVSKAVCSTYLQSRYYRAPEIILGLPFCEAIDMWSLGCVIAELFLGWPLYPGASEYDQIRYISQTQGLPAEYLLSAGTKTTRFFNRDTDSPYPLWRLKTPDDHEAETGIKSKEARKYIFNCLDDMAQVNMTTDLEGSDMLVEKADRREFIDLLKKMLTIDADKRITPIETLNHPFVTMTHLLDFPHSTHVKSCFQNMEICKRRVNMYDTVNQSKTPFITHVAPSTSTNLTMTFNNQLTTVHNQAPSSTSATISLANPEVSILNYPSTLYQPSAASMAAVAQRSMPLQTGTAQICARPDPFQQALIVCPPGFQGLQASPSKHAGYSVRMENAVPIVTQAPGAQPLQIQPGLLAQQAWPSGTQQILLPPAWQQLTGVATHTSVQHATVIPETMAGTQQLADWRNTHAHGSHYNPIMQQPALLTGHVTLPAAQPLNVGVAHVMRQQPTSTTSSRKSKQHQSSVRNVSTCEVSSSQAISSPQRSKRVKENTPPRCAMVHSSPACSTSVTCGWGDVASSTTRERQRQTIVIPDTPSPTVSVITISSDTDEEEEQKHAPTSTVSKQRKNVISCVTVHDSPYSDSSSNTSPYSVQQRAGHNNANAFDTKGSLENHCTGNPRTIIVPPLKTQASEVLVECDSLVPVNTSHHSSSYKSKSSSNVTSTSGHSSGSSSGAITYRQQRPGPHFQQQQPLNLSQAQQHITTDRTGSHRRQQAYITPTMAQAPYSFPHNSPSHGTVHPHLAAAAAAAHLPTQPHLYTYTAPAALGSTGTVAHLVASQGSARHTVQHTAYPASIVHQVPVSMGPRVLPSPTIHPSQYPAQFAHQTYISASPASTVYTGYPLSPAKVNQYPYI
The next assay deals with PIM3 (Homo sapiens, UniProt Q86V86). In a few lines:
as §1

For the next assay, the target named is CSK (Homo sapiens, UniProt P41240). The method in brief:
as §1

The target of a further assay is FLT3(D835V) (Homo sapiens, UniProt P36888, D835V). The method in brief: as §1

Chain of ERN1 (O75460 whole entry): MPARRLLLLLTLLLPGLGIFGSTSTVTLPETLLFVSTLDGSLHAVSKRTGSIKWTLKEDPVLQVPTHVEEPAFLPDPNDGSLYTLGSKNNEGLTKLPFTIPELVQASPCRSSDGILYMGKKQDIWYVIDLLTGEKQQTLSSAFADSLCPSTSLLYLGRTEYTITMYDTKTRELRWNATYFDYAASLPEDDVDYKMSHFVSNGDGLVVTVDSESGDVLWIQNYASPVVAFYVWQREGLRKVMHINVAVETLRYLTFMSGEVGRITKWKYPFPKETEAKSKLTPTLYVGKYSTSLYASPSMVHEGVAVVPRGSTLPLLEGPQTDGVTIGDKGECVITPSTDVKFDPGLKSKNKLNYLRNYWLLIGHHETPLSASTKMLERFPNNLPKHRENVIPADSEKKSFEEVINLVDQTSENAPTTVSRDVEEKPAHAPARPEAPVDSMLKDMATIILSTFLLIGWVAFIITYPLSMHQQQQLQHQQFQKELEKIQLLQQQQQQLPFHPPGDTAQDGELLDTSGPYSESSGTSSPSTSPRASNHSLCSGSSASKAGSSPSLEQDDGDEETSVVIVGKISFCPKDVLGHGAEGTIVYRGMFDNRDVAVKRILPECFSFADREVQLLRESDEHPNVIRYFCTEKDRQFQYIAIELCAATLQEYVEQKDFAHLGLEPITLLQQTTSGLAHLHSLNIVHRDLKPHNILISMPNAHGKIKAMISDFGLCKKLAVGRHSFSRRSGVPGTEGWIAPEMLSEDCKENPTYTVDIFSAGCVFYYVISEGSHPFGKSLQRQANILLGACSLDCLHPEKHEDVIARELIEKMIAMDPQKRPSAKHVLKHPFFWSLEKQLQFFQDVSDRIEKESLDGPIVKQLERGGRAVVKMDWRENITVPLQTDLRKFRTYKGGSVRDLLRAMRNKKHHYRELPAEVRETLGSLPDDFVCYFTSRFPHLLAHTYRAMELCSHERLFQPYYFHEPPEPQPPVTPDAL
Chain of ALK(C1156Y) (Q9UM73 whole entry C1156Y): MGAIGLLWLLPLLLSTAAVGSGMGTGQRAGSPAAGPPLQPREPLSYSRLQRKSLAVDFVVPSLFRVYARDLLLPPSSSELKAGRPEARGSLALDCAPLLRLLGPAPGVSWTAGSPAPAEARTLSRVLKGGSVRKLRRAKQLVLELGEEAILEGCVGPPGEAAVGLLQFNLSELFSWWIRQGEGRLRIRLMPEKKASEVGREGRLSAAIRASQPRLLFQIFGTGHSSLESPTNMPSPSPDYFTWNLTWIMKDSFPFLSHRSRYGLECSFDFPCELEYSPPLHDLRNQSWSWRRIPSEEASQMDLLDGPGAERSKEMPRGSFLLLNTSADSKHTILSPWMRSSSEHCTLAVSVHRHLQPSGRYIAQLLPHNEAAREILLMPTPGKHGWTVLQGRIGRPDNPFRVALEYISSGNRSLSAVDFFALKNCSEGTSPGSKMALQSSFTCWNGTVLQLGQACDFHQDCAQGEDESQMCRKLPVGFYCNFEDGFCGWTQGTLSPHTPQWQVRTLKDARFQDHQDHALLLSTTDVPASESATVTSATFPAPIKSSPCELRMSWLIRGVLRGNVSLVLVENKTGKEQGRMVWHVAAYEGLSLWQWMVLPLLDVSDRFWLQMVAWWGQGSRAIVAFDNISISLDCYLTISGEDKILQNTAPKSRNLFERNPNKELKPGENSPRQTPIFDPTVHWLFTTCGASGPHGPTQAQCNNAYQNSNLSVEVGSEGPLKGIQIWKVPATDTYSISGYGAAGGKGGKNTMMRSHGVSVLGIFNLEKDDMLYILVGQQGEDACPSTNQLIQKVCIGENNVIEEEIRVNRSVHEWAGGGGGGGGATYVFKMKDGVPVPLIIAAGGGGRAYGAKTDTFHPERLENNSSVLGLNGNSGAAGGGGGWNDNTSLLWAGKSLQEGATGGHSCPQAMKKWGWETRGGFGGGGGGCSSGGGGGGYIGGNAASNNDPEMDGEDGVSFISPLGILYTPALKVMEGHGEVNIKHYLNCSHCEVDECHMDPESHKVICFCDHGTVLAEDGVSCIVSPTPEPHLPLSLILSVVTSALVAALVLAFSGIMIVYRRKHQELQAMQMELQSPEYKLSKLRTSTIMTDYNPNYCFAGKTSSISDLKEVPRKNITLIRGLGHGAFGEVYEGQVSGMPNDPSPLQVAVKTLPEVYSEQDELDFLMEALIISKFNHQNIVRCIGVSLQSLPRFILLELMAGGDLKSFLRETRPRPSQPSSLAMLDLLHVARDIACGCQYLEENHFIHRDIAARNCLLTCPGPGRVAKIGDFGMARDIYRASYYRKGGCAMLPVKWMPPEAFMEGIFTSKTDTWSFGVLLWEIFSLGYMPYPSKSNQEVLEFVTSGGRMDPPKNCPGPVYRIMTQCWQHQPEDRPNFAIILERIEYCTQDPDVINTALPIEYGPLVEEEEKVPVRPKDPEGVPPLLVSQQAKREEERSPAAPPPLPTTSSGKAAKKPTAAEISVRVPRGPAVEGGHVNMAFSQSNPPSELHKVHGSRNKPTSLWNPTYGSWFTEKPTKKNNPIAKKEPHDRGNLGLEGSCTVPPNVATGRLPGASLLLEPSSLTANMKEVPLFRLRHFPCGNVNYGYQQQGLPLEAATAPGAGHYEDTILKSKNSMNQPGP
Chain of ALK(L1196M) (Q9UM73 whole entry L1196M): as the sequence (Q9UM73 whole entry C1156Y) above, with Y1156C, L1196M counted along it
Chain of CSK (P41240 whole entry): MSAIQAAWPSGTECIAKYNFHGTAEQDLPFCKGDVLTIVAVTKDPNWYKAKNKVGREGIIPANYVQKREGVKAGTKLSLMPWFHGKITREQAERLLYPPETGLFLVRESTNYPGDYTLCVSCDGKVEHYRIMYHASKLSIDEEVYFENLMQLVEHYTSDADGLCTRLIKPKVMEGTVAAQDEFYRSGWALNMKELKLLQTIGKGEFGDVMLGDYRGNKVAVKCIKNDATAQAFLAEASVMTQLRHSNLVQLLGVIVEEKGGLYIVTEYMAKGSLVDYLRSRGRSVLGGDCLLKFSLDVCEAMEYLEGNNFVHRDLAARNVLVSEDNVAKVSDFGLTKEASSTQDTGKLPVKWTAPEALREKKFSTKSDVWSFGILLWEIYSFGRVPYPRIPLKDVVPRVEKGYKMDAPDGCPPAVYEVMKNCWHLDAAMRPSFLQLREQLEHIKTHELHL

Take `C=C(C)[C@H]1CC=C(C)C(=O)C1` [S-carvone]: the remaining binding at 100 µM on ROCK1 came out at 100%; on LTK it was 79%; at MAPKAPK5, 87%; at DMPK, 94%; on FGFR3(G697C) it was 75%; at DMPK2, 83%. The remaining binding at 100 µM on PKN1 came out at 93%; on MRCKB, 91%; at ALK(L1196M), 71%; at MAP4K4 it was 85%; on TTK it was 80%; on EPHA3, 100%. In addition, the remaining binding at 100 µM at CLK2 was 60%; on IGF1R, 82%; on ERN1, 90%; at ALK(C1156Y), 70%; at CDKL2 it was 85%; on LATS2, 45%. Also, the remaining binding at 100 µM on HIPK2 was found to be 76%; on PIM3, 72%; on CSK it was 88%; at FLT3(D835V), 77%.
